Experimental data: patent US20040038828A1 (priority 2002, published 2004)
“Also recorded” adds a separate entry of the source. Read-outs that look alike come from different tables or passages of the source.

What was measured:
[1] = test system: Redstem filaree; type: in vivo; conditions: Watsonville plots; rate 400 lbs acres^−1
[2] = test system: Common chickweed; type: in vivo; conditions: Watsonville plots; rate 400 lbs acres^−1
[3] = test system: native weed population; type: in vivo; conditions: Salinas plots, rate 400 lbs acres^−1
[4] = test system: root-knot nematode eggs (Meliodogyne incognita); test: Nematicide screen, root-knot nematode galling assay on tomato; type: in vivo; conditions: 0 to 2000 ppm soil drench, tarped 14 days, seedlings assessed 30 days after transplant
Protocol: Nematicide Screen: Efficacy as a nematicide was evaluated by infesting field soil with a standardized quantity of root-knot nematode eggs (Meliodogyne incognita). Soil was partitioned into 10 cm pots containing 500 g of soil each with soil moisture adjusted to 5%. Pots were treated with compounds ranging from 0 ppm to 2000 ppm of active ingredient in a 100-ml soil drench. Six replicate pots of each concentration were treated and tarped with co-extruded black-on-white polyethylene mulch for 14 days. After tarps were removed, a single tomato seedling was transplanted into each pot. Seedlings were removed 30 days later and assessed for root galling, root fresh weight, root dry weight, and number of eggs produced per gram of root tissue.

[5] = test system: Henbet; type: in vivo; conditions: Salinas plots; rate 400 lbs acres^−1
[6] = test system: smooth pigweed (Amaranthus hybridus) seeds; test: Herbicide screen, smooth pigweed petri plate bioassay; type: in vivo; conditions: all ppm levels tested (up to 2000 ppm), 30 days
Protocol: (§1) Herbicide Screen: Each compound was tested on seeds of smooth pigweed (Amaranthus hybridus) and barnyard grass (Echinocloa crus-galli), and on tubers of purple nutsedge (Cyperus rotundus), by exposing seeds or tubers to a specific concentration of the test compound. Seeds were surface sterilized (by rinsing in 2% bleach solution for 90 seconds followed by two rinses with sterile water) and 20 seeds placed on sterile filter paper (Whatman #5) in a 10-cm petri plate for each of six replicates for each weed species tested. Twenty ml of compound of concentrations ranging from 0 ppm (sterile water control) to 2000 ppm was added to the petri dishes. Plates were stored at 30° C. in an dark incubator. Seed germination was monitored at 24 hr intervals for 30 days. Petri plate bioassays were repeated twice for each compound. Field collected purple nutsedge tubers were placed in 500 g of field soil with soil moisture adjusted to 5%. Five nutsedge tubers were planted in each 10 cm pot at a depth of 2.5 cm. Six replicate pots of each concentration, ranging from 0 ppm (water control) to 2000 ppm, were treated using 100 ml as a soil drench. Pots were tarped with co-extruded black-on-white polyethylene mulch for 7 days. After the tarps were removed, the number of emerged nutsedge shoots was recorded on a weekly basis for 60 days.

[7] = test system: native weed population; type: in vivo
[8] = test system: Corn spurry; type: in vivo; conditions: Watsonville plots; rate 400 lbs acres^−1
[9] = test system: Shepherd-spurse; type: in vivo; conditions: Salinas plots; rate 400 lbs acres^−1
[10] = test system: purple nutsedge (Cyperus rotundus) tubers; test: Herbicide screen, nutsedge greenhouse assay (soil drench in pots); type: in vivo; conditions: for level eliminating the germination of nutsedge: 100 ml soil drench, 500 g soil, tarped 7 days, shoots counted for 60 days
Protocol: as §1

[11] = test system: Commong roundsel; type: in vivo; conditions: Salinas plots; rate 400 lbs acres^−1
[12] = test system: Fusarium oxysporum f. sp. lycopersici (isolate FP-7) spores; test: Fusarium Tetrazolium Assay; type: cell-based; conditions: 24 hours of exposure; MTT absorbance at 570 nm
Protocol: Fusarium Tetrazolium Assay: The evaluation of fungicidal activity was performed using a modified colorimetric assay (Mace, M. E., et al., Pesticide Biochemistry and Physiology, 38: 57-59 (1990)). Each candidate compound was tested using a suspension of Fusarium oxysporum f. sp. lycopersici (isolate FP-7) spores harvested from 10-day old petri plates using a 0.05% stock solution of Triton X-100 (referred to as FT stock). Harvested spores were suspended in Czapek-Dox Broth (CDB), prepared according to label instructions, at a ratio of 1:5 CDB:FT. The suspension was then standardized using a Beckman spectrophotometer (430 nm) which had been calibrated using a CDB blank. Compounds were then added to aliquots of the suspension to achieve active ingredient concentrations ranging from 0 ppm (untreated control) to 2000 ppm. Suspensions were incubated for 24 hr at 28° C. A 10% stock solution of MTT ((3-4,5-dimethylthiazole-2-yl)-2,5-diphenyl-2-2H-tetrazolium bromide) was then added to each aliquot; MTT is a vital stain that is commonly used to show if an organism is alive based on a color change). The suspensions were allowed to incubate for 4 hr, and then pelleted, drained, rinsed, and treated with 95% ethanol. The color change, which correlates with spore viability, was assessed using a Beckman spectrophotometer (570 nm) calibrated with 95% ethanol. Benlate® (benomyl) was used as an industry standard control. Each treatment was replicated six times and the assay for each compound was repeated. Regression analysis was performed using Sigma Plot 2000.

[13] = test system: Verticillium dahliea; type: in vivo; conditions: Watsonville; preplant fumigation, 400 pound per acre
[14] = test system: Little mallow; type: in vivo; conditions: Watsonville plots; rate 400 lbs acres^−1
[15] = test system: Annual sowthistle; type: in vivo; conditions: Watsonville plots; rate 400 lbs acres^−1
[16] = test system: barnyard grass (Echinocloa crus-galli) seeds; test: Herbicide screen, barnyard grass petri plate bioassay; type: in vivo; conditions: all ppm levels tested (up to 2000 ppm), 30 days
Protocol: as §1

[17] = test system: Southern brassbuttons; type: in vivo; conditions: Watsonville plots; rate 400 lbs acres^−1

OCCBr [2-bromoethanol]
weed biomass, Redstem filaree [1]: 0.3 gram/m^2
weed biomass, Common chickweed [2]: 1.6 gram/m^2
weed biomass, Other weeds [3]: 21.5 gram/m^2
Total weed biomass ([3]; same letter = not significantly different at P < 0.05): 46.7a gram/m^2
root gall severity on tomato [4]: Only the untreated control showed galling of any kind
weed biomass, Henbet [5]: 9.4 gram/m^2
germination of pigweed seeds [6]: eliminated at all ppm levels tested
control of native weeds (in words) ([7]; Watsonville): control of most weeds
weed biomass, Other weeds ([7]; Watsonville plots, rate 400 lbs acres^−1): 3.6 gram/m^2
Total weed biomass ([7]; Watsonville plots, rate 400 lbs acres^−1, same letter = not significantly different at P <0.05): 13.7a gram/m^2
weed biomass, Corn spurry [8]: 1.1 gram/m^2
weed biomass, Shepherd-spurse [9]: 11.3 gram/m^2
level eliminating the germination of nutsedge [10]: ≥ 1000 ppm
nutsedge germination ([10]; at the 500 ppm level): approximately 50%
soil applied equivalent of the rate eliminating nutsedge germination ([10]; equivalent of the 1000 ppm drench level): 200 ppm
weed biomass, Commong roundsel [11]: 0.3 gram/m^2
fungicidal activity (in words) [12]: excellent fungicidal activity
reduction of the population of Verticillium dahliea [13]: 74%
weed biomass, Little mallow [14]: 0.2 gram/m^2
weed biomass, Annual sowthistle [15]: 0.0 gram/m^2
germination of barnyard grass seeds [16]: eliminated at all ppm levels tested
weed biomass, Southern brassbuttons [17]: 1.0 gram/m^2

OCCI [2-iodoethanol]
root gall severity on tomato [4]: galling decreases with increased concentration
germination of pigweed seeds [6]: eliminated at all ppm levels tested
level eliminating the germination of nutsedge [10]: ≥ 500 ppm
concentration effective at reducing cell viability to levels achieved with Benlate (100 ppm) [12]: 100-500 ppm
fungicidal activity (in words) [12]: comparable to the Benlate® control; also recorded: excellent fungicidal activity
germination of barnyard grass seeds [16]: eliminated at all ppm levels tested
